The values that follow come from ChEMBL document CHEMBL3351704, “Synthesis and biological evaluation of 4-oxoquinoline-3-carboxamides derivatives as potent anti-fibrosis agents” (Bioorg Med Chem Lett, 2014).

pIC50: −log10 of the molar value. Activity calls are given as the source filed them. The rule behind the calls is not given here.

The test system of test [1] is NRK-49F. The test can be described thus: Inhibition of TGF-beta1-induced total collagen accumulation in rat NRK-49F cells at 10 uM. The class given is functional.
The subject of test [2] is RAW264.7. The test can be described thus: Inhibition of LPS-induced TNFalpha production in mouse RAW264.7 cells 10 uM. The class given is functional.
In test [3] the test system is NRK-49F. The test can be described thus: Inhibition of TGF-beta1-induced total collagen accumulation in rat NRK-49F cells. The class given is functional, cell-based.
For test [4], the system named is NRK-49F. As to the kind of experiment: Inhibition of TGF-beta1-induced total collagen accumulation in rat NRK-49F cells at 3 uM by picro-sirius red staining method. The class given is functional, cell-based.
In test [5] the test system is Mus musculus. The test can be described thus: Anti-fibrotic activity in mouse bleomycin-induced lung fibrosis model assessed as reduction in inflammatory infiltrate level at 20 mg/kg/day, ip before bleomycin injection by H and E staining. The class given is functional, organism-based.
Test [6] concerns Mus musculus. The test can be described thus: Anti-fibrotic activity in mouse bleomycin-induced lung fibrosis model assessed as reduction in lung injury at 20 mg/kg/day, ip before bleomycin injection by H and E staining. The class given is functional, organism-based.
The subject of test [7] is Mus musculus. The test can be described thus: Anti-fibrotic activity in mouse bleomycin-induced lung fibrosis model assessed as reduction of lung collagen deposition at 20 mg/kg/day, ip before bleomycin injection by H and E staining. The class given is functional, organism-based.
For test [8], the system named is NRK-49F. The test can be described thus: Inhibition of TGF-beta1-induced total collagen accumulation in rat NRK-49F cells at 5 uM by picro-sirius red staining method. The class given is functional, cell-based.
Test [9] relates to Mus musculus. As to the kind of experiment: Anti-fibrotic activity in mouse bleomycin-induced lung fibrosis model assessed as cumulative proportion of survival at 20 mg/kg/day, ip before bleomycin injection measured on day 28. Conditions: 672 h, route intraperitoneal. The class given is functional.
In test [10] the test system is Mus musculus. The test can be described thus: Anti-fibrotic activity in mouse bleomycin-induced lung fibrosis model assessed as slowing of body weight loss at 20 mg/kg/day, ip before bleomycin injection measured on day 28. The class given is functional, organism-based.
For test [11], the system named is Mus musculus. As to the kind of experiment: Anti-fibrotic activity in mouse bleomycin-induced lung fibrosis model assessed as reduction in leukocytes in bronchoalveolar lavage fluid at 20 mg/kg/day, ip before bleomycin injection. The class given is functional. Conditions: route intraperitoneal.
Test [12] deals with Mus musculus. The test can be described thus: Anti-fibrotic activity in mouse bleomycin-induced lung fibrosis model assessed as reduction in lymphocytes in bronchoalveolar lavage fluid at 20 mg/kg/day, ip before bleomycin injection. The class given is functional. To be noted: route intraperitoneal.
In test [13] the test system is Mus musculus. As to the kind of experiment: Anti-fibrotic activity in mouse bleomycin-induced lung fibrosis model assessed as reduction in neutrophils in bronchoalveolar lavage fluid at 20 mg/kg/day, ip before bleomycin injection. The class given is functional. Conditions: route intraperitoneal.
The subject of test [14] is Mus musculus. The test can be described thus: Anti-fibrotic activity in mouse bleomycin-induced lung fibrosis model assessed as reduction in hydroxyproline level at 20 mg/kg/day, ip before bleomycin injection. The class given is functional.

`CCc1ccc2[nH]cc(C(=O)Nc3cc(O)c(C(C)(C)C)cc3C(C)(C)C)c(=O)c2c1` yielded an inhibition at 10 µM in test [1] of 55.9%.

In turn, `CC(C)(C)c1cc(C(C)(C)C)c(NC(=O)c2c[nH]c3ccc(F)cc3c2=O)cc1O` had an inhibition at 10 µM in [1] of 51.6%.

Consider `CCc1ccc(NC(=O)c2c[nH]c3ccc(C(C)(C)C)cc3c2=O)cc1`, for which, in test [1], the inhibition at 10 µM came to 19.4%.

In test [1], `CC(C)(C)c1ccc2[nH]cc(C(=O)Nc3ccc(C(C)(C)C)c([N+](=O)[O-])c3)c(=O)c2c1` gave an inhibition at 10 µM of 75.7%. In [2], the “inhibition (INH)” value turned out to be 47.7%.

In the case of `CC(C)(C)c1ccc(NC(=O)c2cn(Cc3ccccc3)c3ccc(C(C)(C)C)cc3c2=O)cc1`, in test [1], the inhibition at 10 µM was 9.1%.

Take `CC(C)(C)c1ccc2[nH]cc(C(=O)Nc3ccc(C(C)(C)C)c(N)c3)c(=O)c2c1`: in test [1], testing at 10 µM gave an inhibition of 67.9%. In test [2], the “inhibition (INH)” value was found to be 71.3%. In [3], the pIC50 is 5.39. For the same compound, in test [4], the inhibition entry was “Active”.

Compound `Cc1ccc(NC(=O)c2c[nH]c3ccc(C(C)(C)C)cc3c2=O)cc1` had an inhibition at 10 µM in [1] of 28.9%.

As for `CC(C)(C)c1ccc2[nH]cc(C(=O)Nc3ccc(F)cc3)c(=O)c2c1`, the inhibition at 10 µM in [1] was determined as 23.5%.

`CC(C)(C)c1ccc(NC(=O)c2cn(CCN3CCCCC3)c3ccc(C(C)(C)C)cc3c2=O)cc1` yielded an inhibition at 10 µM in test [1] of 30.1%.

On to `CC(C)(C)c1ccc(NC(=O)c2cn(CCCl)c3ccc(C(C)(C)C)cc3c2=O)cc1`, for which, in test [1], the inhibition at 10 µM stood at 35.8%.

In test [1], `CC(C)(C)c1ccc2[nH]cc(C(=O)Nc3cc(O)c(C(C)(C)C)cc3C(C)(C)C)c(=O)c2c1` gave an inhibition at 10 µM of 73.8%. For the same compound, the “inhibition (INH)” value in [2] is listed as 45.7%.

`CC(C)(C)c1ccc2[nH]cc(C(=O)Nc3cccc(Cl)c3)c(=O)c2c1`: in test [1], the inhibition at 10 µM was determined as 30.5%.

In the case of `CC(C)(C)c1cccc(NC(=O)c2c[nH]c3ccc(C(C)(C)C)cc3c2=O)c1`, in [1], 10 µM produced 44.8% inhibition.

For `CC(C)(C)c1cc(C(C)(C)C)c(NC(=O)c2c[nH]c3ccccc3c2=O)cc1O` [IVACAFTOR], the inhibition at 10 µM in [1] is 64.7%. In test [2], the “inhibition (INH)” value turned out to be 63.2%. For the same compound, the pIC50 in test [3] was 5.40. Besides, the inhibition entry in test [5], in test [6] and in test [7] was “inactive” in each case.

Turning to `COc1cc(NC(=O)c2c[nH]c3ccc(C(C)(C)C)cc3c2=O)cc(OC)c1OC`, in test [1], 10 µM produced 77.1% inhibition. In addition, in test [2], the “inhibition (INH)” value is given as 70.8%. Moreover, in test [3], the pIC50 was 5.60. The inhibition entry in test [4], in test [8], in [5], in test [6] and in test [7] was “Active” in each case. In addition, in [9], the survival at 20 mg/kg/day came out at 72.2%. The result in test [10] was Active. The inhibition in vivo at 20 mg/kg/day in test [11] was found to be 54.8%; in test [12], 15.8%; in [13], 57.7%; in test [14] (route intraperitoneal), 52.4%.

Regarding `CC(C)(C)c1ccc(NC(=O)c2cn(CCCN3CCOCC3)c3ccc(C(C)(C)C)cc3c2=O)cc1`, the inhibition at 10 µM in test [1] stood at 30.2%.

As to `CN1CCN(CCn2cc(C(=O)Nc3ccc(C(C)(C)C)cc3)c(=O)c3cc(C(C)(C)C)ccc32)CC1`, in test [1], the inhibition at 10 µM came out at 46.6%.

For the compound `Cc1ccc2[nH]cc(C(=O)Nc3cc(O)c(C(C)(C)C)cc3C(C)(C)C)c(=O)c2c1`, in test [1], the inhibition at 10 µM amounted to 49.9%.

In test [1], `COc1ccccc1NC(=O)c1c[nH]c2ccc(C(C)(C)C)cc2c1=O` returned an inhibition at 10 µM of 47.9%.

In test [1], `CCCCn1cc(C(=O)Nc2ccc(C(C)(C)C)cc2)c(=O)c2cc(C(C)(C)C)ccc21` returned an inhibition at 10 µM of 16.9%.

In turn, `CC(C)(C)c1ccc(NC(=O)c2cn(CCN3CCOCC3)c3ccc(C(C)(C)C)cc3c2=O)cc1` had an inhibition at 10 µM in test [1] of 71.1%. Further, the “inhibition (INH)” value in test [2] is 69.5%. This compound had a pIC50 in test [3] of 5.64. For the same compound, the inhibition entry in test [4] and in test [8] was “Active” in each case.

In turn, `CC(C)(C)c1ccc(NC(=O)c2cn(CCN3CCCC3)c3ccc(C(C)(C)C)cc3c2=O)cc1` came in with an inhibition at 10 µM in test [1] of 44.8%.

`CC(C)(C)c1ccc(NC(=O)c2c[nH]c3ccc(C(C)(C)C)cc3c2=O)cc1` yielded an inhibition at 10 µM in [1] of 81%. Also, in test [2], the “inhibition (INH)” value was 61.6%. Moreover, the pIC50 in [3] was 5.70. Besides, the inhibition result in test [4] and in test [14] was “Active” throughout. Besides, the survival at 20 mg/kg/day in test [9] is 83.3%. Besides, the outcome in test [10] was Active. Moreover, the inhibition in vivo at 20 mg/kg/day in test [11] is 40.3%; in test [12], 33.6%; in test [13], 39.7%. For the same compound, the inhibition result in test [5], in [6] and in test [7] was “inactive” throughout.

For `CCn1cc(C(=O)Nc2ccc(C(C)(C)C)cc2)c(=O)c2cc(C(C)(C)C)ccc21`, the inhibition at 10 µM in [1] was determined as 34.3%.

`CC(C)(C)c1ccc2[nH]cc(C(=O)Nc3ccccc3C(C)(C)C)c(=O)c2c1` yielded an inhibition at 10 µM in [1] of 54.3%.

With `COc1ccc(NC(=O)c2c[nH]c3ccc(C(C)(C)C)cc3c2=O)cc1`, the inhibition at 10 µM in test [1] was 23.5%.

In [1], `CN1CCN(CCCn2cc(C(=O)Nc3ccc(C(C)(C)C)cc3)c(=O)c3cc(C(C)(C)C)ccc32)CC1` came in with an inhibition at 10 µM of 52.1%.

As for `COc1ccc2[nH]cc(C(=O)Nc3cc(O)c(C(C)(C)C)cc3C(C)(C)C)c(=O)c2c1`, in [1], at 10 µM the inhibition was 53.1%.

In the case of `COc1ccc(NC(=O)c2c[nH]c3ccc(C(C)(C)C)cc3c2=O)cc1OC`, at 10 µM the inhibition in test [1] was 32.6%.

Take `CC(C)(C)c1ccc2[nH]cc(C(=O)Nc3ccc(Cl)cc3)c(=O)c2c1`: in test [1], the inhibition at 10 µM came out at 27.2%.
